Here are results for 1 compound from patent publication US20080255134A1 (Artesian Therapeutics, Inc., priority 2004, published 2008).

Structures are written as SMILES. Entries after “also recorded” stand apart in the source; their conditions may differ. A value given as a limit tells only on which side of the number the result lay.

In assay [1] the target is beta-receptors from rat cortical membranes. Nature of the assay: Non-specific β-receptor radioligand binding, [3H]DHA. Particulars: read-out: Non-selective β-adrenergic IC50. As for the experimental part: (§1) Non-selective β-adrenergic and β1-adrenergic radioligand binding assays were performed using rat cortical membranes; β2-adrenergic receptor assays were performed using membranes isolated from CHO cells expressing human, recombinant b2-adrenergic receptor; non-selective α1-adrenergic receptor assays were performed using rat forebrain membranes; and PDE3 binding assays were performed on human platelets. Values in percent illustrate percent inhibition at 1000 nM concentration.

Assay [2] concerns the target T1, human recombinant beta-1 receptors (Homo sapiens, UniProt P08588).
T1 construct: expressed in transfected cells; host or cells: CHO-REX16 cells
Nature of the assay: β1-receptor radioligand binding, [125I] iodocyanopindolol, CHO-REX16 cells. As to conditions: at 100 nM. Here is the method:
[…] receptor binding was measured in human recombinant beta-1 receptors expressed in CHO-REX16 cells, using [^125I] (-) iodocyanopindolol (2000 Ci/mmol) as the radioligand, as described in Kalaria et al., J. Neurochem. 53: 1772-81 (1998), and Minneman et al., Mol. Pharmacol. 16: 34-46 (1979).

Assay [3] deals with T2, human recombinant beta-2 receptors (Homo sapiens, UniProt P07550).
T2 construct: expressed in transfected cells; host or cells: CHO-WT21 cells
T2 sequence (P07550 whole entry): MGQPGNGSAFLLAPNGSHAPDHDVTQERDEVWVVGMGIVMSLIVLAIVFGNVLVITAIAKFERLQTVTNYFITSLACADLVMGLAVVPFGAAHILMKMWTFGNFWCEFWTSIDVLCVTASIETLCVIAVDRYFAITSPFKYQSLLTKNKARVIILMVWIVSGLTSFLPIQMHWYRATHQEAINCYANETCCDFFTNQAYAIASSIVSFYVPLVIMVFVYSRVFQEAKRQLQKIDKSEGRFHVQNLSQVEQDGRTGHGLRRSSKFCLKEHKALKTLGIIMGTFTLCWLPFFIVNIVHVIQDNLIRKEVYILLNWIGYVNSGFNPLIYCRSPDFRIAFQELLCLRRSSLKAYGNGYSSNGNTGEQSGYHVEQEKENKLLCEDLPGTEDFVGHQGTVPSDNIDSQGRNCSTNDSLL
Nature of the assay: β2-receptor radioligand binding, [125I] iodocyanopindolol, CHO-WT21 cells. Here is the method:
as §1

The target of assay [4] is T3, β1-adrenergic receptor (Rattus norvegicus, UniProt P18090).
T3 construct: from tissue; host or cells: rat cortical membranes
T3 sequence (P18090 whole entry): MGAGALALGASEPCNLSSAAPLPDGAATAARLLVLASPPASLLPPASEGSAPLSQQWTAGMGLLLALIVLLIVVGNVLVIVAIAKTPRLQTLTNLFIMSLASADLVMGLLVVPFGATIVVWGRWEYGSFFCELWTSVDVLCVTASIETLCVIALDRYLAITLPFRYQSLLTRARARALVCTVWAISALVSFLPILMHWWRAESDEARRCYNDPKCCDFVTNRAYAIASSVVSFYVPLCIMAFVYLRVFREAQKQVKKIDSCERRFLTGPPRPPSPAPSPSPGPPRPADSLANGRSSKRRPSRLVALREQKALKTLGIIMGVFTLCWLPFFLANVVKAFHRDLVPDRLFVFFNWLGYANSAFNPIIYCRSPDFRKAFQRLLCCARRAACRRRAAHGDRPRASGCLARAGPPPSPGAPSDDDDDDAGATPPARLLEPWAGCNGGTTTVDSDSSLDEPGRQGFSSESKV
Kind of assay: β1-adrenergic radioligand binding assay using rat cortical membranes. Here is the method: as §1

The target in assay [5] is α1-adrenergic receptor. Kind of assay: Non-selective α1-adrenergic receptor assay using rat forebrain membranes. Type of assay: binding. Here is the method:
as §1, with “The ability of Compounds 25 and 8c to inhibit PDE3 and β-adrenergic receptor activity was examined both in vitro and in vivo. […] Non-selective” for “Non-selective”

Assay [6] has as its system isolated ventricular myocytes. Kind of assay: Sarcomere shortening (contractility) in isolated ventricular myocytes. Type of assay: cell-based, rabbit. As for the experimental part: […] Isoproterenol, a potent β-Adrenergic agonist, can produce large increases in cardiac contraction, calcium transient amplitude, and the rates of relaxation (acceleration of relaxation or lusitropic effect). The effects of isoproterenol are then antagonized with different concentrations of a compound of the present invention.
Cardiac myocytes were digested from healthy white New Zealand male rabbits (3-5 lbs), with enzymatic digestion. Briefly, each animal is anesthetized with ketamine (50 mg/kg) and xylazine (6 mg/kg)-IM injection in hind limb. Once the animal was sedated (˜10-15 min), 0.1-0.3 ml of pentobarbital was injected into the ear vein. The heart was exposed by a cut just below the rib-cage and bilateral thoracotomy and removed rapidly ensuring that aorta remains intact. The heart was immediately placed in oxygenated NT with Ca^2+ placed on ice for rinsing the blood out, cleared from vessels and pericardium, cannulated and maintained at 37° C. The heart was retrogradedly perfused and tissue digested with collagenase and protease. Digested myocytes were subsequently stored in 0.1 mM Ca^2+ normal tyrodes for further analyses. Sarcomere length changes upon treatment with test compounds were recorded at 37° C. in the presence of 2 mM calcium and analyzed with an IonOptix system. Sarcomere length data was acquired for each myocyte over an average of 10 beats duration, at pacing rates of 1, 2, and 3 Hz. Basal percent sarcomere shortening and length-frequency relation of each myocyte was evaluated, and serve as a measure of cellular viability.
In vitro studies were performed using rabbit ventricular tissue, to examine the effects of Compounds 25 and 8c on myocyte contractility. New Zealand male rabbits (1.5-2.5 kg) were anesthetized with ketamine (50 mg/kg) and xylazine (6 mg/kg)-IM. The heart was exposed and removed rapidly to ensure that the aorta remained intact. The ventricular tissue was digested enzymatically. Sarcomere shortening was measured in the presence of 2 mM calcium at 37° C. using an IonOptix system; reported values were at 2 Hz pacing frequency.

The subject of assay [7] is White New Zealand male rabbits. Nature of the assay: In vivo hemodynamic effects of compounds administered alone (Protocol 2). More on the design: species or system rabbit. Here is the method:
Studies were performed on White New Zealand male rabbits (2-3 kg weight). Animals were initially anesthetized with ketamine (50 mg/kg; IM) and xylazine (6 mg/kg, IM). Subsequently, animals were intubated (via tracheotomy; 3 mm tube) and ventilated with 2% isoflurane (mixed in 95% O2+5% CO2). Each rabbit was instrumented for LV pressure (3F Millar catheter) through right carotid artery, arterial pressure (3F catheter, Cook Instruments) through left femoral artery, which was connected to a fluid-filled pressure transducer (BD Instruments), and ECG. Both pressure transducers were zeroed against atmospheric pressure, and calibrated before each study using an analog manometer. Upon completion of instrumentation, isoflurane was reduced to 1.25%, and the animal was covered for maintenance of body core temperature. Arterial and LV blood pressures (LVP) and the ECG signals were simultaneously digitally recorded on a PC. The recording system (Gould Instruments) and the corresponding software (Ponema, Gould Instruments) facilitated detailed calculation of various parameters directly from all signals and record on a separate file with a 1 sec resolution. Upon completion of the study protocol, rabbits were euthenized by isoflurane overdose (5% for at least 1 minute) and cardiac arrest through IV infusion of 5 ml 3 molar potassium chloride.
Once the physiological variables were stable, effects of each drug on hemodynamics and ECG were determined based on two different protocols: 1) infusion of a compound of the present invention to determine the effects of the compound itself mainly on contractility, and other hemodynamic indices; and 2) infusion of a compound of the present invention while the system was challenged with 0.5 ug/kg isoproterenol to determine the beta-adrenergic antagonism properties of each tested compound.
White New Zealand male rabbits (2-3 kg) were anesthetized and ventilated (95% O2+5% CO2) with 1.25% isoflurane. Each animal was instrumented for LV pressure (Millar, through left carotid artery), arterial pressure (left femoral artery), infusion (jugular vein), and electrocardiogram. The animals were administered intravenously based on one of these protocols:
Protocol 2: PDE3 inhibition (effects of compounds when administered alone).

Assay [8] concerns naive anesthetized canines. Nature of the assay: Contractility in naive anesthetized canines (protocol 2). Type of assay: in vivo, canine. Particulars: administered alone (protocol 2), FIG. 17.
The test system of assay [9] is White New Zealand male rabbits. Kind of assay: In vivo β-adrenergic blockade, isoproterenol challenge (Protocol 1). More on the design: species or system rabbit; dose or concentration left out as unconfirmed. As to conditions: during isoproterenol challenge, intravenous, FIG. 10.

T1 sequence (P08588 whole entry): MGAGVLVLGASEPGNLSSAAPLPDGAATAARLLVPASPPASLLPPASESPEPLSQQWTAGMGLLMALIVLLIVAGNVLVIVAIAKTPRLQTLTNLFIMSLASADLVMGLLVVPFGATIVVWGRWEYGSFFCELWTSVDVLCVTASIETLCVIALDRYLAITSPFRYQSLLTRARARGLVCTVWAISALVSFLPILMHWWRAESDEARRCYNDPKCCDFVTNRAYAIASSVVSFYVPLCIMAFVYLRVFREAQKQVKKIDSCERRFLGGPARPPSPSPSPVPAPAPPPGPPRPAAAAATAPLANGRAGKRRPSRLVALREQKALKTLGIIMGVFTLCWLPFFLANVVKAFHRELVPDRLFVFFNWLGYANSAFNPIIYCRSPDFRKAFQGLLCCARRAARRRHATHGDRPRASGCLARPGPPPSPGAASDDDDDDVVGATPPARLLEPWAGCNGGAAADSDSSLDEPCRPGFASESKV

A word on the IC50: it is the point on the concentration scale where inhibition reaches its midpoint. The inhibition is the percentage by which the read-out fell short of the control. As to `O=C1CCC(c2ccc(OCCNCC(O)COc3cccc4[nH]c5ccccc5c34)c(Cl)c2)=NN1` (racemic) [Compound 25, 6-(4-{2-[3-(9H-Carbazol-4-yloxy)-2-hydroxy-propylamino]-ethoxy}-3-chloro-phenyl)-4,5-dihydro-2H-pyridazin-3-one], the IC50 in assay [1] was determined as 3 nM; in assay [3] (membranes from CHO cells expressing human recombinant β2-adrenergic receptor), 1 nM; in assay [4], 2 nM; in assay [5] it was 349 nM. The inhibition at 0.1 µM in [2] and in [3] (at 100 nM) was greater than 25% each time. For the same compound, the “blocking of isoproterenol effect on myocyte contractility” value in assay [6] (0.1 μM isoproterenol) was “blocking the effects of 0.1 μM isoproterenol”. Moreover, in assay [6] (2 mM calcium, 37° C., 2 Hz pacing frequency), the “contractility (sarcomere shortening) in isolated ventricular myocytes” value was “increased contractility”. In addition, in [7] (Protocol 2, with and without atropine and bilateral vagotomy (FIG. 16)), the “heart rate when administered alone” value is given as “minimal effect on heart rate; also recorded: did not increase heart rate”. The “left ventricular contractility when administered alone” value in assay [7] (protocol 2, relative to control, FIGS. 2, 12) is listed as “increased or maintained contractility in a dose-dependent manner”. Further, the “contractility in naive anesthetized canines” value in assay [8] was “increased contractility in a dose-dependent manner”. Besides, the “β-adrenergic antagonism on left ventricular contractility” value in assay [9] was “potent dose-dependent β-adrenergic antagonism”.
